Numbered stars: 1 amine (or outer) side, 2 acyl side, 3 side chain; on linkers, the order of the positions; unused ones are H or OH. Square brackets hold non-standard residues; d marks the D form. Side chains are listed from the residue outwards. Peptide text beside a SMILES is read from it. * marks the point of attachment. DOTA = O=C(O)CN1CCN(CC(=O)O)CCN(CC(=O)*)CCN(CC(=O)O)CC1; d(γGlu) = O=C(O)[C@@H](CCC(=O)[*:2])N[*:1]; 1Nal = N[C@@H](Cc1cccc2ccccc12)C(=O)O; NMeNle = CCCC[C@H](NC)C(=O)O; PEG4 = NCCOCCOCCOCCOCCC(=O)O
Experiments:
[1] = tested on: AR42J tumor-bearing mice; assay: Ex vivo biodistribution of 177Lu-labeled compound; design: species or system BALB/c nude mice; details: mouse, in vivo
Method: To evaluate the biodistribution of [^177Lu]Lu-DOTA-CCK2R-dimer, AR42J tumor-bearing mice received intravenous (i.v.) injections of 3.7 MBq (≈ 120 pmol) of [^177Lu]Lu-DOTA-CCK2R-dimer (dissolved in 200 μL of saline; n = 3/group), and Mice were sacrificed at 1, 4, 24, 48, 72, and 96 h post-injection. The tissues of interest were excised, weighed, and analyzed for radioactivity using a γ-counter.
All animal studies were approved by the Ethics Committee of Fudan University Shanghai Cancer Center (No. FUSCC-IACUC- S2023- 0003). Five-week-old female BALB/c nude mice were purchased from Shanghai SLAC Laboratory Animal
Company. To establish cell-derived xenograft (CDX) models, 1 × 10⁶ AR42J cells (100 μL) were subcutaneously inoculated into the right shoulder of each mouse. […]
Radioactivity levels were measured using a gamma counter, with decay correction applied based on the injection time. The percentage of injected dose per gram of tissue (%ID/g) was calculated for each time point. […]

[2] = tested on: AR42J tumor-bearing mice; assay: Toxicity studies (blood count, blood biochemistry, histopathology)
Method: On day 12 post-treatment, the tumor tissues were processed and subjected to scRNA-seq and immunohistochemical (IHC) analysis (see Supplementary Methods, Section S4). […] Toxicity studies were conducted when the mice reached one of the predefined endpoints (Supplementary Methods, Section S6). […]
Section S6: Toxicity Studies
Blood samples were collected retro-orbitally using a glass capillary tube when mice reached one of the predefined endpoints. The samples were then centrifuged at 6,000 rpm for 10 minutes (Centrifuge 5417R, Eppendorf SE, Enfield, CT, USA), and the supernatant was transferred into a preventive care profile plus rotor for analysis of RBC, WBC, PLT, ALT, AST, ALP, BUN, and CREA. Sample analysis was performed

[3] = design: species or system mice; details: mouse, in vivo, 24 h
Method: In vitro stability was evaluated by incubating ~37 kBq of each radiotracer in PBS or human serum at 37 °C (n = 3). […] To further assess the in vivo stability of [^177Lu]Lu-DOTA-CCK2R-dimer, mice (n = 3) were intravenously injected with 3.7 MBq of the radiotracer in 200 μL of saline. […] The radioactivity of the blood samples was measured using a γ-counter, and the percent of injected dose per gram of tissue (%ID/g) was calculated. Additionally, we assessed the in vivo stability of [^177Lu]Lu-DOTA-CCK2R-dimer. Mice were intravenously injected with 7.4 MBq (≈ 240 pmol) of [^177Lu]Lu-DOTA-CCK2R-dimer (dissolved in 200 μL of saline; n = 3/group).

[4] = tested on: GSTK1; assay: Western blot of GSTK1 expression; format: cell-based, rat; details: cultured AR42J cells, 24 h
Method: pathway analysis, and Reactome pathway analysis. GO enrichment analysis was conducted using clusterProfiler (v4.0.5). KEGG pathway enrichment was analyzed using clusterProfiler, focusing on pathways relevant to radiotherapy- related detoxification, including glutathione metabolism and cytochrome P450- mediated metabolism of xenobiotics. Reactome pathway analysis was performed using […]
to radiosensitivity regulation. […]
protease and phosphatase inhibitors. Total protein (20 μ g per sample) was separated […]
ABclonal, Cat. No. A5226). After three washes with TBST, membranes were […]
temperature. Protein bands were visualized using an enhanced chemiluminescence detection system (CLINX, ChemiScope 6200).
Section S6: Toxicity Studies […]
mice reached one of the predefined endpoints. The samples were then centrifuged at […]
RBC, WBC, PLT, ALT, AST, ALP, BUN, and CREA. Sample analysis was performed

[5] = tested on: AR42J tumor-bearing mice; assay: In vivo therapeutic study (tumor volume, survival, body weight); design: species or system BALB/c nude mice
Text: When the tumor volume reached approximately 100 mm^3, the AR42J tumor-bearing mice were randomly divided into four treatment groups (n = 8/group).
Tumor volumes and body weights were monitored every two days. The following humane endpoints were established as follows: tumor volume exceeding 1500 mm^3, weight loss greater than 15%, or observable signs of pain or distress. Mice meeting one of these criteria were euthanized.

[6] = post-treatment blood biochemistry

CCCC[C@@H](C(=O)N[C@@H](CC(=O)O)C(=O)N[C@@H](Cc1cccc2ccccc12)C(N)=O)N(C)C(=O)[C@H](Cc1c[nH]c2ccccc12)NC(=O)CCOCCOCCOCCOCCNC(=O)CC[C@@H](NC(=O)CC[C@H](NC(=O)CN1CCN(CC(=O)O)CCN(CC(=O)O)CCN(CC(=O)O)CC1)C(=O)N[C@H](CCC(=O)NCCOCCOCCOCCOCCC(=O)N[C@@H](Cc1c[nH]c2ccccc12)C(=O)N(C)[C@@H](CCCC)C(=O)N[C@@H](CC(=O)O)C(=O)N[C@@H](Cc1cccc2ccccc12)C(N)=O)C(=O)O)C(=O)O [[177Lu]Lu-DOTA-CCK2R-dimer] [metal not drawn] ({DOTA}-E([d(γGlu)-PEG4-Trp-NMeNle-Asp-1Nal-NH2])[d(γGlu)][PEG4]W[NMeNle]D[1Nal]-NH2)
Tumor-to-Muscle ratio (T/M) [1]: 90.85
ALP ([2]; mouse, in vivo): 135.99 ± 24.61 U/L
ALT ([2]; mouse, in vivo): 44.93 ± 6.41 U/L
AST ([2]; mouse, in vivo): 87.94 ± 5.64 U/L
GRA ([2]; mouse, in vivo): 28.7 ± 8.16%
GRA# ([2]; mouse, in vivo): 0.20 ± 0.07 109/L
HCT ([2]; mouse, in vivo): 19.2 ± 5.20%
HGB ([2]; mouse, in vivo): 151.67 ± 19.64 g/L
LYM ([2]; mouse, in vivo): 52.27 ± 2.74%
LYM# ([2]; mouse, in vivo): 0.38 ± 0.14 109/L
MCH ([2]; mouse, in vivo): 41.83 ± 6.37 pg
MCHC ([2]; mouse, in vivo): 714 ± 42.04 g/L
MCV ([2]; mouse, in vivo): 51.63 ± 0.81 fL
MON ([2]; mouse, in vivo): 19.03 ± 9.18%
MON# ([2]; mouse, in vivo): 0.15 ± 0.13 109/L
P-LCR ([2]; mouse, in vivo): 35.87 ± 5.49%
PCT ([2]; mouse, in vivo): 0.16 ± 0.04%
PDW ([2]; mouse, in vivo): 28.67 ± 2.04 fL
PLT ([2]; mouse, in vivo): 116 ± 13.08 109/L
RBC ([2]; mouse, in vivo): 4.72 ± 0.81 1012/L
RDWCV ([2]; mouse, in vivo): 10.77 ± 0.40%
RDWSD ([2]; mouse, in vivo): 22.33 ± 1.15 fL
UA ([2]; mouse, in vivo): 126.33 ± 13.85 µmol/L
UREA ([2]; mouse, in vivo): 3.25 ± 0.56 mmol/L
WBC ([2]; mouse, in vivo): 7.0 ± 2.65 109/L
MPV ([2]; post-treatment CBC): 12.2 ± 0.61 fL
compound remaining intact in urine (radiochemical purity) [3]: more than 96%

CO[C@H]1C[C@@H]2CC[C@@H](C)[C@@](O)(O2)C(=O)C(=O)N2CCCC[C@H]2C(=O)O[C@H]([C@H](C)C[C@@H]2CC[C@@H](OCCO)[C@H](OC)C2)CC(=O)[C@H](C)/C=C(\C)[C@@H](O)[C@@H](OC)C(=O)[C@H](C)C[C@H](C)/C=C/C=C/C=C/1C [RAD001, everolimus, reference compound]
GRA ([2]; post-treatment CBC): 23.97 ± 4.05%
GRA# ([2]; post-treatment CBC): 0.19 ± 0.05 109/L
HCT ([2]; post-treatment CBC): 25.73 ± 1.05%
HGB ([2]; post-treatment CBC): 178.57 ± 3.40 g/L
LYM ([2]; post-treatment CBC): 53.9 ± 5.47%
LYM# ([2]; post-treatment CBC): 0.41 ± 0.03 109/L
MCH ([2]; post-treatment CBC): 35.33 ± 0.87 pg
MCHC ([2]; post-treatment CBC): 693.67 ± 15.95 g/L
MCV ([2]; post-treatment CBC): 51.03 ± 0.57 fL
MON ([2]; post-treatment CBC): 22.13 ± 2.32%
MON# ([2]; post-treatment CBC): 0.17 ± 0.05 109/L
MPV ([2]; post-treatment CBC): 13.8 ± 0.35 fL
P-LCR ([2]; post-treatment CBC): 45.87 ± 1.03%
PCT ([2]; post-treatment CBC): 0.12 ± 0.01%
PDW ([2]; post-treatment CBC): 32.9 ± 0.3 fL
PLT ([2]; post-treatment CBC): 104.33 ± 2.52 109/L
RBC ([2]; post-treatment CBC): 5.05 ± 0.22 1012/L
RDWCV ([2]; post-treatment CBC): 11.23 ± 0.15%
RDWSD ([2]; post-treatment CBC): 23.33 ± 1.10 fL
WBC ([2]; post-treatment CBC): 7.67 ± 1.15 109/L
ALP [2, 6]: 150.68 ± 32.99 U/L
ALT [2, 6]: 43.73 ± 11.08 U/L
AST [2, 6]: 109.76 ± 13.94 U/L
UA [2, 6]: 140.92 ± 41.88 µmol/L
UREA [2, 6]: 3.49 ± 1.30 mmol/L
GSTK1 expression (Western blot) [4]: lower in the mTOR group than in the Veh group
median survival time ([5]; Kaplan-Meier): 32 days
average tumor volume ([5]; day 10): 197.63 ± 40.92 mm³

Source: PMC12439480, “Dimeric CCK2R radiotheranostic tracers synergize with mTOR inhibition for enhanced tumor therapy” (Theranostics, 2025)
